Data from the supplement of paper PMC8920030.

What was measured:
Conditions in all cases: growth mode: biofilm, 24 h; exposure time: 24 h
[1] = compound: T1, CCC(C)CCCC(=O)N[C@@H](CCN)C(=O)N[C@H](C(=O)N[C@@H](CCN)C(=O)N[C@H]1CCNC(=O)[C@H]([C@@H](C)O)NC(=O)[C@H](CCN)NC(=O)[C@H](CCN)NC(=O)[C@H](CC(C)C)NC(=O)[C@@H](CC(C)C)NC(=O)[C@H](CCN)NC1=O)[C@@H](C)O [colistin]; assay: minimum concentration eradicating biofilm below detection limit (MCK-E); higher = more biofilm tolerance
Method: (§1)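 Clinical P. aeruginosa isolates were grown as static biofilms for 24 h at 37 °C in LB in half-area 96-well plates, then exposed for 24 h to colistin at 1, 4, 16, 64, 256 or […]. Surviving CFU were counted by spotting serial dilutions. MCK is the lowest tested concentration giving the stated log reduction in CFU versus an untreated control; '>1024' means the reduction was not reached at the top dose, and 1 is the lowest dose tested (≤1).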

[2] = compound: T2, NC[C@H]1O[C@H](O[C@H]2[C@H](O)[C@@H](O[C@H]3O[C@H](CO)[C@@H](O)[C@H](N)[C@H]3O)[C@H](N)C[C@@H]2N)[C@H](N)C[C@@H]1O [tobramycin]; assay: as above
Method: as §1, with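 “tobramycin” for “colistin”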

[3] = compound: T1, colistin; assay: minimum concentration of killing, 1-log CFU reduction of biofilm (MCK90); higher = more biofilm tolerance
Method: as §1

[4] = compound: T1, colistin; assay: minimum concentration of killing, 2-log CFU reduction of biofilm (MCK99); higher = more biofilm tolerance
Method: as §1

[5] = compound: T2, tobramycin; assay: minimum concentration of killing, 1-log CFU reduction of biofilm (MCK90); higher = more biofilm tolerance
Method: as §1, with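 “tobramycin” for “colistin”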

[6] = compound: T2, tobramycin; assay: minimum concentration of killing, 2-log CFU reduction of biofilm (MCK99); higher = more biofilm tolerance
Method: as §1, with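 “tobramycin” for “colistin”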

[7] = compound: T1, colistin; assay: minimum concentration of killing, 4-log CFU reduction of biofilm (MCK99.99); higher = more biofilm tolerance
Method: as §1

[8] = compound: T2, tobramycin; assay: as above
Method: as §1, with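 “tobramycin” for “colistin”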

Pseudomonas aeruginosa clinical isolate ESP032
minimum concentration eradicating biofilm below detection limit [1]: 256 µg/mL
minimum concentration eradicating biofilm below detection limit [2]: > 1020 µg/mL
minimum concentration of killing [3]: 256 µg/mL
minimum concentration of killing [4]: 256 µg/mL
minimum concentration of killing [5]: 256 µg/mL
minimum concentration of killing [6]: 256 µg/mL
minimum concentration of killing [7]: 256 µg/mL
minimum concentration of killing [8]: 1020 µg/mL

Pseudomonas aeruginosa clinical isolate ESP033
minimum concentration eradicating biofilm below detection limit [1]: 256 µg/mL
minimum concentration eradicating biofilm below detection limit [2]: 256 µg/mL
minimum concentration of killing [3]: 256 µg/mL
minimum concentration of killing [4]: 256 µg/mL
minimum concentration of killing [5]: 16 µg/mL
minimum concentration of killing [6]: 64 µg/mL
minimum concentration of killing [7]: 256 µg/mL
minimum concentration of killing [8]: 64 µg/mL

Pseudomonas aeruginosa clinical isolate ESP034
minimum concentration eradicating biofilm below detection limit [1]: 256 µg/mL
minimum concentration eradicating biofilm below detection limit [2]: 1020 µg/mL
minimum concentration of killing [3]: 256 µg/mL
minimum concentration of killing [4]: 256 µg/mL
minimum concentration of killing [5]: 4 µg/mL
minimum concentration of killing [6]: 16 µg/mL
minimum concentration of killing [7]: 256 µg/mL
minimum concentration of killing [8]: 1020 µg/mL

Pseudomonas aeruginosa clinical isolate ESP035
minimum concentration eradicating biofilm below detection limit [1]: 256 µg/mL
minimum concentration eradicating biofilm below detection limit [2]: 1020 µg/mL
minimum concentration of killing [3]: 64 µg/mL
minimum concentration of killing [4]: 256 µg/mL
minimum concentration of killing [5]: 256 µg/mL
minimum concentration of killing [6]: 256 µg/mL
minimum concentration of killing [7]: 256 µg/mL
minimum concentration of killing [8]: 256 µg/mL

Pseudomonas aeruginosa clinical isolate ESP036
minimum concentration eradicating biofilm below detection limit [1]: 256 µg/mL
minimum concentration eradicating biofilm below detection limit [2]: 64 µg/mL
minimum concentration of killing [3]: 256 µg/mL
minimum concentration of killing [4]: 256 µg/mL
minimum concentration of killing [5]: ≤ 1 µg/mL
minimum concentration of killing [6]: 4 µg/mL
minimum concentration of killing [7]: 256 µg/mL
minimum concentration of killing [8]: 16 µg/mL

Pseudomonas aeruginosa clinical isolate ESP037
minimum concentration eradicating biofilm below detection limit [1]: 64 µg/mL
minimum concentration eradicating biofilm below detection limit [2]: 256 µg/mL
minimum concentration of killing [3]: 64 µg/mL
minimum concentration of killing [4]: 64 µg/mL
minimum concentration of killing [5]: 4 µg/mL
minimum concentration of killing [6]: 4 µg/mL
minimum concentration of killing [7]: 64 µg/mL
minimum concentration of killing [8]: 64 µg/mL

Pseudomonas aeruginosa clinical isolate ESP038
minimum concentration eradicating biofilm below detection limit [1]: 256 µg/mL
minimum concentration eradicating biofilm below detection limit [2]: 64 µg/mL
minimum concentration of killing [3]: 64 µg/mL
minimum concentration of killing [4]: 64 µg/mL
minimum concentration of killing [5]: ≤ 1 µg/mL
minimum concentration of killing [6]: 4 µg/mL
minimum concentration of killing [7]: 256 µg/mL
minimum concentration of killing [8]: 4 µg/mL

Pseudomonas aeruginosa clinical isolate ESP039
minimum concentration eradicating biofilm below detection limit [1]: 64 µg/mL
minimum concentration eradicating biofilm below detection limit [2]: 256 µg/mL
minimum concentration of killing [3]: 64 µg/mL
minimum concentration of killing [4]: 64 µg/mL
minimum concentration of killing [5]: 4 µg/mL
minimum concentration of killing [6]: 16 µg/mL
minimum concentration of killing [7]: 64 µg/mL
minimum concentration of killing [8]: 64 µg/mL

Pseudomonas aeruginosa clinical isolate ESP040
minimum concentration eradicating biofilm below detection limit [1]: 64 µg/mL
minimum concentration eradicating biofilm below detection limit [2]: 64 µg/mL
minimum concentration of killing [3]: 64 µg/mL
minimum concentration of killing [4]: 64 µg/mL
minimum concentration of killing [5]: 4 µg/mL
minimum concentration of killing [6]: 16 µg/mL
minimum concentration of killing [7]: 64 µg/mL
minimum concentration of killing [8]: 64 µg/mL

Pseudomonas aeruginosa clinical isolate ESP044
minimum concentration eradicating biofilm below detection limit [1]: 256 µg/mL
minimum concentration eradicating biofilm below detection limit [2]: 256 µg/mL
minimum concentration of killing [3]: 64 µg/mL
minimum concentration of killing [4]: 64 µg/mL
minimum concentration of killing [5]: 4 µg/mL
minimum concentration of killing [6]: 64 µg/mL
minimum concentration of killing [7]: 256 µg/mL
minimum concentration of killing [8]: 256 µg/mL

Pseudomonas aeruginosa clinical isolate ESP046
minimum concentration eradicating biofilm below detection limit [1]: 256 µg/mL
minimum concentration eradicating biofilm below detection limit [2]: 1020 µg/mL
minimum concentration of killing [3]: 256 µg/mL
minimum concentration of killing [4]: 256 µg/mL
minimum concentration of killing [5]: 16 µg/mL
minimum concentration of killing [6]: 1020 µg/mL
minimum concentration of killing [7]: 256 µg/mL
minimum concentration of killing [8]: 1020 µg/mL

Pseudomonas aeruginosa clinical isolate ESP050
minimum concentration eradicating biofilm below detection limit [1]: 256 µg/mL
minimum concentration eradicating biofilm below detection limit [2]: 1020 µg/mL
minimum concentration of killing [3]: 64 µg/mL
minimum concentration of killing [4]: 256 µg/mL
minimum concentration of killing [5]: 64 µg/mL
minimum concentration of killing [6]: 1020 µg/mL
minimum concentration of killing [7]: 256 µg/mL
minimum concentration of killing [8]: 1020 µg/mL

Pseudomonas aeruginosa clinical isolate ESP054
minimum concentration eradicating biofilm below detection limit [1]: 256 µg/mL
minimum concentration eradicating biofilm below detection limit [2]: 256 µg/mL
minimum concentration of killing [3]: 64 µg/mL
minimum concentration of killing [4]: 256 µg/mL
minimum concentration of killing [5]: 4 µg/mL
minimum concentration of killing [6]: 4 µg/mL
minimum concentration of killing [7]: 256 µg/mL
minimum concentration of killing [8]: 256 µg/mL

Pseudomonas aeruginosa clinical isolate ESP055
minimum concentration eradicating biofilm below detection limit [1]: 256 µg/mL
minimum concentration eradicating biofilm below detection limit [2]: 64 µg/mL
minimum concentration of killing [3]: 64 µg/mL
minimum concentration of killing [4]: 256 µg/mL
minimum concentration of killing [5]: ≤ 1 µg/mL
minimum concentration of killing [6]: 16 µg/mL
minimum concentration of killing [7]: 256 µg/mL
minimum concentration of killing [8]: 16 µg/mL

Pseudomonas aeruginosa clinical isolate ESP058
minimum concentration eradicating biofilm below detection limit [1]: 256 µg/mL
minimum concentration eradicating biofilm below detection limit [2]: 64 µg/mL
minimum concentration of killing [3]: 256 µg/mL
minimum concentration of killing [4]: 256 µg/mL
minimum concentration of killing [5]: 4 µg/mL
minimum concentration of killing [6]: 16 µg/mL
minimum concentration of killing [7]: 256 µg/mL
minimum concentration of killing [8]: 64 µg/mL

Pseudomonas aeruginosa clinical isolate ESP059
minimum concentration eradicating biofilm below detection limit [1]: 256 µg/mL
minimum concentration eradicating biofilm below detection limit [2]: 256 µg/mL
minimum concentration of killing [3]: 64 µg/mL
minimum concentration of killing [4]: 256 µg/mL
minimum concentration of killing [5]: ≤ 1 µg/mL
minimum concentration of killing [6]: 4 µg/mL
minimum concentration of killing [7]: 256 µg/mL
minimum concentration of killing [8]: 256 µg/mL

Pseudomonas aeruginosa clinical isolate ESP060
minimum concentration eradicating biofilm below detection limit [1]: 1020 µg/mL
minimum concentration eradicating biofilm below detection limit [2]: > 1020 µg/mL
minimum concentration of killing [3]: 256 µg/mL
minimum concentration of killing [4]: 256 µg/mL
minimum concentration of killing [5]: > 1020 µg/mL
minimum concentration of killing [6]: > 1020 µg/mL
minimum concentration of killing [7]: 1020 µg/mL
minimum concentration of killing [8]: > 1020 µg/mL

Pseudomonas aeruginosa clinical isolate ESP063
minimum concentration eradicating biofilm below detection limit [1]: 256 µg/mL
minimum concentration eradicating biofilm below detection limit [2]: > 1020 µg/mL
minimum concentration of killing [3]: ≤ 1 µg/mL
minimum concentration of killing [4]: 16 µg/mL
minimum concentration of killing [5]: 256 µg/mL
minimum concentration of killing [6]: 1020 µg/mL
minimum concentration of killing [7]: 256 µg/mL
minimum concentration of killing [8]: > 1020 µg/mL
